We go through 12 compounds from ChEMBL document CHEMBL6153127, “Cyclodepsipeptides and Fatty Acid Lactones from the Freshwater-Derived Fungus, Talaromyces gwangjuensis, and Their Potential as Autophagy Activators” (J Nat Prod, 2025).

Holding throughout (type): functional, cell-based
The subject of assay [1] is HEK293-A. Description: Cytotoxicity against HEK293-A cells expressing GFP-tagged LC3 assessed as cell viability at 10 uM incubated for 24 hrs by MTT assay. The following applies: Homo sapiens. (Tetrazolium assays rely on reduction of a dye to a coloured formazan, in cell work by metabolically active cells.)
Assay [2] has as its system HEK293-A. Description: Regulation of autophagy in HEK293-A cells expressing GFP-tagged LC3 assessed as increase in green fluorescence at 10 uM incubated for 24 hrs by confocal microscopy. The following applies: Homo sapiens.
Assay [3] concerns IMR-90. Description: Induction of autophagy in human IMR-90 cells expressing GFP-mCherry-tagged LC3 assessed as increase in red puncta at 10 uM incubated for 24 hrs by DAPI staining based confocal microscopy.
Assay [4] relates to IMR-90. Description: Induction of autophagic flux in human IMR-90 cells expressing GFP-mCherry-tagged LC3 assessed as accumulation of LC3B-II incubated for 6 hrs in presence of chloroquine by Western blot analysis. The following applies: dose 1-20 µM. (Immunoblotting shows a protein as a band on a membrane.)

Active and inactive are the calls of the source. The rule behind the calls is not given here.

Take `C=C1C(=O)O[C@@H](C(=O)O)[C@@H]1CCCCCCCCCCC`: the result in assay [1] was Active.
As to `CCCCCCCC[C@@H](COC(C)=O)[C@@H]1OC(=O)[C@H](CO)NC(=O)[C@H](C(=O)c2c[nH]c3ccccc23)NC(=O)[C@@H](CCC(=O)OCC)NC(=O)[C@H]1C`, in assay [1], the outcome was inactive. The result in assay [2] was Active.
On to `CCCCCCCCCC[C@H](O)C1=C(COCC)C(=O)OC1`, for which the result in assay [1] was inactive.
Still for that read-out and setting: the result for `O=C(c1c[nH]c2ccccc12)C(O)CO` (stereo not drawn) reads “inactive”.
In the case of `CCCCCCCC[C@@H](C)[C@@H]1OC(=O)[C@H](CO)NC(=O)[C@H](C(=O)c2c[nH]c3ccccc23)NC(=O)[C@@H](CCC(=O)O)NC(=O)[C@H]1C`, the outcome in assay [1] was inactive. Also, in assay [2], the result was Active.
Turning to `CCCCCCCC[C@@H](C)[C@@H]1OC(=O)[C@H](CO)NC(=O)[C@H](Cc2c[nH]c3ccccc23)NC(=O)[C@@H](CCC(=O)O)NC(=O)[C@H]1C`, the outcome in assay [3] and in assay [2] was Active. Further, in assay [1], the result was inactive.
With `CCCCCCCC[C@@H](C)[C@@H]1OC(=O)[C@H](CO)NC(=O)[C@H](C(=O)c2c[nH]c3ccccc23)NC(=O)[C@@H](CCC(=O)OCC)NC(=O)[C@H]1C`, the result in assay [1] was inactive. Further, in assay [2], the result was Active.
Consider `CCCCCCCC[C@@H](COC(C)=O)[C@@H]1OC(=O)[C@H](CO)NC(=O)[C@H](C(=O)c2c[nH]c3ccccc23)NC(=O)[C@@H](CCC(=O)O)NC(=O)[C@H]1C`, for which the Activity result in assay [4] was “Dose-dependent-effect”. Moreover, the result in assay [3] and in assay [2] was Active. In addition, in assay [1], the result was inactive.
For the compound `CCCCCCCC[C@@H]1COC(=O)[C@H](CO)NC(=O)[C@H](C(=O)c2c[nH]c3ccccc23)NC(=O)[C@@H](CCC(=O)O)NC(=O)[C@@H](C)[C@H]1O`, the result in assay [1] was inactive. In addition, the outcome in assay [2] was Active.
Take `CCCCCCCCCCCC[C@H](O)[C@]1(O)[C@@H](COC)C(=O)O[C@H]1C(=O)O`: the outcome in assay [1] was inactive.
For `CCCCCCCC[C@@H](C)[C@@H]1OC(=O)[C@H](CO)NC(=O)/C(=C/c2c[nH]c3ccccc23)NC(=O)[C@@H](CCC(=O)O)NC(=O)[C@H]1C`, the result in assay [3] and in assay [2] was Active. Moreover, the result in assay [1] was inactive.
Take `C=C1C(=O)O[C@H](CCCCCCCCCC)[C@H]1[C@@H](O)C(=O)OCC`: in assay [1], the result was inactive.
